From US9139581B2 (PORTOLA PHARMACEUTICALS, INC., priority 2008, dated 2015) come the findings set out here.

The test system of the assay is SUDHL-6 and Toledo cells. Briefly: Caspase 3 apoptosis assay. The assay is classed as cell-based, human. As to conditions: 1 μM, 72 h treatment. As for the experimental part: Induction of apoptosis in non-Hodgkin's lymphoma B cell lines SUDHL-4, SUDHL-6, and Toledo was assessed by measuring the apoptotis marker Caspase 3. Cells were incubated with 1, 3, or 10 μM compound for 24, 48, and 72 hours. At the conclusion of each time point, cells were processed for flow cytometry analysis using the Monoclonal Rabbit Anti-Active Caspase-3 Antibody Kit and related protocols (BD Pharmingen). Data from two independent experiments are presented in Tables 5A and 5B, representing the percent of total cells undergoing apoptosis following incubation with compounds under the indicated conditions.
Induction of apoptosis was measured using the PE-conjugated monoclonal active caspase-3 antibody apoptosis kit (Becton Dickenson) following the supplied protocol. Cells were suspended in growth media (0.5×10^6 cells/ml) and treated with the indicated concentrations of each Syk inhibitor or vehicle control for 24, 48, or 72 hours prior to FACS analysis. The MTT (3-(4,5-Dimethylthiazol-2-yl)-2,5-diphenyltetrazolium bromide, a tetrazole) assay […] was used as a measure of cell viability and growth, following protocols supplied by the manufacturer. Cells were treated with the indicated concentrations of each Syk inhibitor or vehicle control for 72 hours.
Selective inhibition of Syk was sufficient to induce apoptosis in “BCR-type” NHL cell lines.

Turning to `CCCCCCCCCCCCCC(=O)O[C@@H]1[C@@H](C)[C@@]2(O)[C@@H](C=C(CO)C[C@]3(O)C(=O)C(C)=C[C@@H]23)[C@@H]2C(C)(C)[C@]12OC(C)=O` [PMA], the Induction of apoptosis entry was “equally sensitive to induction of apoptosis”.
